# Measurements reported in patent US9695155B2, “Herbicidal substituted pyrimidinyloxy benzene compounds” (E. I. DU PONT DE NEMOURS AND COMPANY, priority 2013, dated 2017).
# How the values were obtained:
# galium = test: Test D preemergence; format: in vivo, Galium aparine; details: Galium, pre-emergence, scale 0-100, read-out: Plant response rating, Galium
# In short: (§1)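 Species were sown in silt loam for preemergence treatment, or grown in peat-based medium to the 1–4-leaf stage (2–18 cm) for postemergence sprays. Test chemicals were formulated in a non-phytotoxic solvent mixture with surfactant. After 7–21 days in a controlled environment, plants were rated visually against controls on a 0 (no effect) to 100 (complete control) scale.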
# field poppy = test: Test D preemergence; format: in vivo, Papaver rhoeas; details: Papaver rhoeas, pre-emergence, scale 0-100, read-out: Plant response rating, Field Poppy
# In short: as §1
# field violet = test: Test D preemergence; format: in vivo, Viola arvensis; details: Viola arvensis, pre-emergence, scale 0-100, read-out: Plant response rating, Field Violet
# In short: as §1
# kochia = test: Test D preemergence; format: in vivo, Kochia scoparia; details: Bassia scoparia, pre-emergence, scale 0-100, read-out: Plant response rating, Kochia
# In short: as §1
# chamomile [1] = test: Test D preemergence; format: in vivo, Matricaria inodora; details: Tripleurospermum inodorum, pre-emergence, scale 0-100, read-out: Plant response rating, Chamomile
# In short: as §1
# wild oat = test: Test D preemergence; format: in vivo, Avena fatua; details: Avena fatua, pre-emergence, scale 0-100, read-out: Plant response rating, Oat, Wild
# In short: as §1
# windgrass = test: Test D preemergence; format: in vivo, Apera spica-venti; details: Apera spica-venti, pre-emergence
# In short: as §1
# green foxtail = test: Test D postemergence; format: in vivo, Setaria viridis; details: Setaria viridis, post-emergence, scale 0 to 100 (0 no effect, 100 complete control), read-out: Plant response rating, Foxtail, Green
# In short: as §1
# chamomile [2] = test: Test D postemergence; format: in vivo, Matricaria inodora; details: Tripleurospermum inodorum, post-emergence, scale 0 to 100 (0 no effect, 100 complete control), read-out: Plant response rating, Chamomile
# In short: as §1
# spring wheat = test: Test D postemergence; format: in vivo, Triticum aestivum; details: Triticum aestivum, post-emergence, scale 0 to 100 (0 no effect, 100 complete control), read-out: Plant response rating, Wheat, Spring
# In short: as §1
# winter wheat = test: Test D postemergence; format: in vivo, Triticum aestivum; details: Triticum aestivum, post-emergence, scale 0 to 100 (0 no effect, 100 complete control), read-out: Plant response rating, Wheat, Winter
# In short: as §1
# [3] = test system: waterhemp_RES2 (ALS & HPPD resistant common waterhemp); test: Test E postemergence; format: in vivo, Amaranthus rudis; details: Amaranthus tuberculatus, post-emergence, read-out: Plant response rating, Waterhemp_RES2
# In short: (§2)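 Response was scored visually on a 0-100 scale (100 = complete control) versus controls after 14 to 21 days in the greenhouse. Test chemicals, formulated with surfactant in a non-phytotoxic solvent mixture, had been applied preemergence to seeds in silt loam soil or postemergence to 1- to 4-leaf plants in potting medium.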
# waterhemp = test: Test E postemergence; format: in vivo, Amaranthus rudis; details: Amaranthus tuberculatus, post-emergence, read-out: Plant response rating, Waterhemp
# In short: as §2
# sandbur = test: Test E postemergence; format: in vivo, Cenchrus echinatus; details: Cenchrus echinatus, post-emergence, read-out: Plant response rating, Sandbur
# In short: as §2
# [4] = Postemergence, 31 g ai/ha, scale 0 to 100
# [5] = Postemergence, 62 g ai/ha, scale 0 to 100
# [6] = Postemergence, 125 g ai/ha, scale 0 to 100
# [7] = Postemergence, 250 g ai/ha, scale 0 to 100
# [8] = postemergence, 16 g ai/ha, scale 0 to 100, 0 no effect, 100 complete control
structure (smiles),measurement,setting,value
"N#Cc1cccc(Oc2ncc(Cl)cn2)c1-n1cc(C(F)(F)F)cn1 [Compound 58, 3-[(5-chloro-2-pyrimidinyl)oxy]-2-[4-(trifluoromethyl)-1H-pyrazol-1-yl]benzonitrile]",pest or weed control at 31 g/ha,galium; 31 g ai/ha,65%
same,pest or weed control at 62 g/ha,galium; 62 g ai/ha,100%
same,pest or weed control at 125 g/ha,galium; 125 g ai/ha,100%
same,pest or weed control at 250 g/ha,galium; 250 g ai/ha,100%
same,pest or weed control at 31 g/ha,field poppy; 31 g ai/ha,95%
same,pest or weed control at 62 g/ha,field poppy; 62 g ai/ha,100%
same,pest or weed control at 125 g/ha,field poppy; 125 g ai/ha,100%
same,pest or weed control at 250 g/ha,field poppy; 250 g ai/ha,100%
same,pest or weed control at 31 g/ha,field violet; 31 g ai/ha,100%
same,pest or weed control at 62 g/ha,field violet; 62 g ai/ha,100%
same,pest or weed control at 125 g/ha,field violet; 125 g ai/ha,100%
same,pest or weed control at 250 g/ha,field violet; 250 g ai/ha,100%
same,pest or weed control at 31 g/ha,kochia; 31 g ai/ha,95%
same,pest or weed control at 62 g/ha,kochia; 62 g ai/ha,95%
same,pest or weed control at 125 g/ha,kochia; 125 g ai/ha,95%
same,pest or weed control at 250 g/ha,kochia; 250 g ai/ha,95%
same,pest or weed control at 31 g/ha,chamomile [1]; 31 g ai/ha,30%
same,pest or weed control at 62 g/ha,chamomile [1]; 62 g ai/ha,50%
same,pest or weed control at 125 g/ha,chamomile [1]; 125 g ai/ha,80%
same,pest or weed control at 250 g/ha,chamomile [1]; 250 g ai/ha,100%
same,pest or weed control at 31 g/ha,wild oat; 31 g ai/ha,15%
same,pest or weed control at 62 g/ha,wild oat; 62 g ai/ha,25%
same,pest or weed control at 125 g/ha,wild oat; 125 g ai/ha,60%
same,pest or weed control at 250 g/ha,wild oat; 250 g ai/ha,100%
same,pest or weed control at 31 g/ha,"windgrass; 31 g ai/ha, scale 0 (no effect) to 100 (complete control), read-out: Plant response rating, Windgrass",100%
same,pest or weed control at 62 g/ha,"windgrass; 62 g ai/ha, scale 0-100, read-out: Plant response rating, Windgrass",100%
same,pest or weed control at 125 g/ha,"windgrass; 125 g ai/ha, scale 0-100, read-out: Plant response rating, Windgrass",100%
same,pest or weed control at 250 g/ha,"windgrass; 250 g ai/ha, scale 0-100, read-out: Plant response rating, Windgrass",100%
same,pest or weed control at 31 g/ha,green foxtail; 31 g ai/ha,20%
same,pest or weed control at 62 g/ha,green foxtail; 62 g ai/ha,40%
same,pest or weed control at 125 g/ha,green foxtail; 125 g ai/ha,65%
same,pest or weed control at 250 g/ha,green foxtail; 250 g ai/ha,80%
same,pest or weed control at 31 g/ha,chamomile [2]; 31 g ai/ha,10%
same,pest or weed control at 62 g/ha,chamomile [2]; 62 g ai/ha,25%
same,pest or weed control at 125 g/ha,chamomile [2]; 125 g ai/ha,35%
same,pest or weed control at 250 g/ha,chamomile [2]; 250 g ai/ha,35%
same,plant injury at 31 g/ha,spring wheat; 31 g ai/ha,10%
same,plant injury at 62 g/ha,spring wheat; 62 g ai/ha,15%
same,plant injury at 125 g/ha,spring wheat; 125 g ai/ha,20%
same,plant injury at 250 g/ha,spring wheat; 250 g ai/ha,35%
same,plant injury at 31 g/ha,winter wheat; 31 g ai/ha,15%
same,plant injury at 62 g/ha,winter wheat; 62 g ai/ha,20%
same,plant injury at 125 g/ha,winter wheat; 125 g ai/ha,25%
same,plant injury at 250 g/ha,winter wheat; 250 g ai/ha,40%
same,pest or weed control at 31 g/ha,[3]; [4],90%
same,pest or weed control at 62 g/ha,[3]; [5],90%
same,pest or weed control at 125 g/ha,[3]; [6],95%
same,pest or weed control at 250 g/ha,[3]; [7],100%
same,pest or weed control at 16 g/ha,[3]; [8],80%
same,pest or weed control at 31 g/ha,waterhemp; [4],85%
same,pest or weed control at 62 g/ha,waterhemp; [5],95%
same,pest or weed control at 125 g/ha,waterhemp; [6],100%
same,pest or weed control at 250 g/ha,waterhemp; [7],100%
same,pest or weed control at 16 g/ha,waterhemp; [8],75%
same,pest or weed control at 31 g/ha,sandbur; [4],10%
same,pest or weed control at 62 g/ha,sandbur; [5],10%
same,pest or weed control at 125 g/ha,sandbur; [6],20%
same,pest or weed control at 250 g/ha,sandbur; [7],55%
same,pest or weed control at 16 g/ha,sandbur; [8],0%
